Blank lines part the entries; values can stand above or below the compound they belong to.
Columns and labels:
Assay type in all cases: cell-based
Sonic hedgehog protein = Sonic hedgehog protein (Mus musculus, UniProt Q62226); test: Inhibition of sonic hedgehog signaling in mouse Shh Light2 cells after […] by Bright-Glo luciferase assay
[1] = target: Zinc finger protein GLI1/GLI2 (Mus musculus, UniProt P47806+Q0VGT2); test: Inhibition of GLI1/GLI2 in mouse Shh Light2 cells assessed as reduction in endogenous hedgehog signalling in presence of Smo agonist SAG by luciferase reporter gene assay
[2] = target: T1, Protein-cysteine N-palmitoyltransferase HHAT (Homo sapiens, UniProt Q5VTY9); test: Inhibition of HA/FLAG/His-tagged HHAT (unknown origin) expressed in 293FT cells assessed as enzyme-mediated sonic hedgehog palmitoylation incubated for 20 mins followed by [125I]iodo-palmitoyl CoA and Shh biotinylated peptide and measured after 1 hr by Scintillation proximity assay
T1 sequence (Q5VTY9 whole entry): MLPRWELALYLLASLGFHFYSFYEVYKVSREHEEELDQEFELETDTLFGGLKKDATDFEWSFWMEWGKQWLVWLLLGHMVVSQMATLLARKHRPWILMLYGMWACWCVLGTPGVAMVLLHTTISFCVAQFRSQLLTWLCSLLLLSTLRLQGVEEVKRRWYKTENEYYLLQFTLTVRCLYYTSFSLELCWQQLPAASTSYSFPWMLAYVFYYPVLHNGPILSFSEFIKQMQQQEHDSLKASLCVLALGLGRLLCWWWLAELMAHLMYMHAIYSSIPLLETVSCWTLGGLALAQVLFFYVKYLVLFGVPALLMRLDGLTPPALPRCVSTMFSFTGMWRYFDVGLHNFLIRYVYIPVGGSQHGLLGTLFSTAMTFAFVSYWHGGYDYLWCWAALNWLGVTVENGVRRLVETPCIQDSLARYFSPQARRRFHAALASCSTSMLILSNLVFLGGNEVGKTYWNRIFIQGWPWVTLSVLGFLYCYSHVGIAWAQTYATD

[3] = Inhibition of mouse Smo A1 mutant expressed in mouse Shh Light2 cells assessed as reduction in hedgehog pathway activation incubated for 30 hrs by luminescence assay
[4] = target: T1, Protein-cysteine N-palmitoyltransferase HHAT; test: Inhibition of 3C-FLAG/His8-tagged human HHAT expressed in HEK293 cells assessed as reduction in enzyme-mediated sonic hedgehog (1 to 11 residues) palmitoylation by click-ELISA method

Sonic hedgehog protein, sequence (Q62226 25-198 limits assumed): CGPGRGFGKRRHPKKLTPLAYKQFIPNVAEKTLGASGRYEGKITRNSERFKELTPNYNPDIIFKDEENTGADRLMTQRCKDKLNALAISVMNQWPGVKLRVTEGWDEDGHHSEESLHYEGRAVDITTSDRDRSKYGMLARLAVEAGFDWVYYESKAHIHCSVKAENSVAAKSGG

Structure (SMILES): O=C(C[C@@H]1C/C=C/CCC(=O)O[C@H](c2ccccc2)CNC1=O)NCc1ccc(Cl)cc1 [ROBOTNIKININ]
IC50 (Sonic hedgehog protein): 4000 nM

Structure (SMILES): CN(C)c1ccccc1CN1CCCN(Cc2ccccc2N(C)C)C1c1ccncc1
IC50 [1]: 5000 nM

Structure (SMILES): c1cc(-c2sc(-c3ccncc3)c(-c3ccncc3)c2-c2ccncc2)ccn1
IC50 [1]: 5000 nM

Structure (SMILES): CCC(C)n1ncn(-c2ccc(N3CCN(c4ccc(OCC5COC(Cn6cncn6)(c6ccc(Cl)cc6Cl)O5)cc4)CC3)cc2)c1=O (stereo unspecified) [ITRACONAZOLE]
IC50 [3]: 800 nM

Second part, the compound after the results:

IC50 [2]: 850 nM
Structure (SMILES): CCC(C)CNCC(=O)N1CCc2sccc2C1COc1cccc(C)c1 (stereo unspecified)

IC50 [4]: 200 nM
Structure (SMILES): CCC(C)CNCC(=O)N1CCc2sccc2C1c1cccc(C)n1 (stereo unspecified)
